Where a name gives a salt, the structure may show the parent alone. Read-outs that look alike come from different tables or passages of the source.
How the values were obtained:
[1] = molecular target: T1, EP4 receptor (Rattus norvegicus, UniProt P43114); experiment: Ex-vivo functional test: reversion of PGE2 effect on LPS-induced TNF alpha release in rat whole blood (EP4 receptor occupation); conditions: 30 mg/kg oral; for Effect per se on the release of TNF alpha (in absence of PGE2): LPS only; for Reversion of the effect of PGE2 on LPS-induced TNF alpha release: blood sampled 1 hour after treatment, **p<0.01 vs vehicle
T1 construct: by the cells present in the whole blood of the rat and expressing the EP4 receptor; from tissue; host or cells: whole blood of male Wistar rats dosed orally, ex vivo
Method: Ex-Vivo Functional Test: Evaluation in the Rat of EP4 Receptor Occupation by Compound 1 (30 mg/kg) Compared to CR6086 (30 mg/kg)
Method: The release of the cytokine TNF alpha induced by the endotoxin Lipopolysaccharide (from E. coli) and modulated by increasing concentrations of PGE2 was evaluated, by the cells present in the whole blood of the rat and expressing the EP4 receptor. As it is known from the literature, PGE2 modulates this release by inhibiting it, and the compounds tested, selective for the EP4 receptor, if present in the blood following their uptake, will be bound to the receptor, preventing PGE2 from inhibiting cytokine release. This reversal effect of the modulation of TNF alpha release can be considered a biomarker of the antagonism towards the EP4 receptor.
Male Wistar rats (Charles River, Italy) weighing 250-275 g were used, orally treated with a vehicle or Compound 1 (30 mg/kg) or CR6086 (30 mg/kg). Each treatment group consisted of 6 animals.
Measurement of the Ex-Vivo Effects in Whole Blood of the Rat:
The effects of the receptor occupancy by the compounds under examination was evaluated one hour after their administration, and compared to those measured in the presence of the vehicle alone. After gaseous anaesthesia with isofluorane, blood was taken from the abdominal aorta and transferred to tubes containing heparin (0.1-0.2 U/ml). Then 0.4 ml blood aliquots were taken and dispensed into a series of test tubes which were pre-heated at 37° C. for 10 minutes. LPS (0.1 μg/ml final concentration) were added to the samples, which represented the test control, or an LPS mix (0.1 μg/ml final concentration)+PGE2 at various concentrations. In the samples representing the basal release of cytokine, LPS was replaced by sterile phosphate buffer (PBS). The samples were incubated for 4 hours at 37° C., then 40 μl of 10 mM EDTA were added and the samples were transferred into ice. The samples were then centrifuged at 1500×g for 10 minutes at 4° C. and the plasma thus obtained was removed and stored at −80° C. until the time of the dosing. The content of TNF alpha in the plasma was measured by means of a specific commercial kit.
The final concentrations of TNF alpha were calculated for each animal treated and for each experimental condition, from which the percentage of inhibition due to increasing concentrations of PGE2 were obtained, compared to the sample containing only LPS. The cytokine release baseline values resulted to be below the ELISA assay sensitivity limit, indicated by the manufacturer. Therefore, the IC50 value was calculated from this inhibition curve. […] The mean TNF alpha values of the samples in presence of only LPS, in the different treatment groups were analysed to verify the possible intrinsic effect of the compound under examination. […]

[2] = molecular target: T2, human EP4 receptor (Homo sapiens, UniProt P35408); experiment: [3H]-PGE2 binding to recombinant human EP4 receptor (HEK293 membranes); design: expressed in transfected cells; conditions: for IC50: recombinant human EP4 receptor, HEK293 membranes, radioligand 1 nM, 90 min 25° C., read-out: [3H]-PGE2 binding IC50 (nM ± SD)
Method: Studies of Binding Towards the Human EP4 Receptor.
The experiments were performed in accordance with the procedure described by Abramovitz et al (Biochemica and Biophysica Acta; 1483, 285-293, 2000).
The cell membranes bearing the human EP4 receptor, stably expressed by HEK293 cells (Human Embryonic Kidney 293) were prepared as described below. After eliminating the culture medium (DMEM, supplemented with Glutamax I and containing 10% of foetal bovine serum and blasticidin 10 μg/ml) a wash of the cell monolayer was performed with 10 ml of hypotonic lysis buffer (TRIS-CI 5 mM+EDTA 5 mM-pH 7.4). The cells, which grew in adherence in the above mentioned medium at 37° C. with 5% CO2, were then detached from the growth container (150 cm^2 flask) and lysed by mechanical action, adding 20 ml of fresh lysis buffer. The lysates were stirred for 30 seconds and centrifuged at 40000×g for 22 minutes at 4° C. The final pellet was stored at −80° C. until use. At the time of the binding experiment, the membranes were thawed and re-suspended in analysis buffer (10 mM MES-KOH pH6, containing 10 mM MgCl2 and 1 mM CaCl2)) to obtain a concentration of 1 mg of proteins/ml. The protein content of the membrane suspension was determined using bovine serum albumin as a standard.
In the experiments, 10 μl aliquots of membranes were incubated with the radioligand [^3H]-Prostaglandin E2 (PGE2) at the concentration of 1 nM, in absence or in presence of various concentrations of the compounds to be tested. The non-specific binding was determined in the presence of PGE2 1 μM. The incubation, in a final volume of 0.1 ml, performed in 96 deepwell microplates, proceeded for 90 minutes at 25° C. The separation of the free radioligand from that bound to the receptor occurred by rapid filtration under vacuum, using Unifilter GFB glass fibre filtering microplates, pre-wetted with 0.3% of polyethylene-imine dissolved in the analysis buffer, followed by 3 washes with cold buffer (50 mM HEPES, NaCl 500 mM, BSA 0.1%, pH 7.4). The filtration discs were then dried at 30° C., to which 0.05 ml of Microscint-20 scintillation liquid (Perkin Elmer) was added to each and at the end the radioactivity present was measured after at least one hour of stabilization. The compound/radioligand competition curves were analysed using the “Non linear curve fitting” program (Graph Pad, version 7 for Windows), which allowed calculating the IC50 value (concentration capable of inhibiting the 50% of the radioligand binding to the receptor under examination) for each compound evaluated.

[3] = molecular target: T2, human EP4 receptor; experiment: Determination of cAMP in CHO cells transfected with human EP4 receptor (functional test); type: cell-based; design: expressed in transfected cells; host or cells: CHO cells; conditions: for Agonist effect (inactive up to): cAMP production in absence of PGE2, vs 1 μM PGE2 control; for Kb: cAMP, CHO-hEP4, 30 nM PGE2, modified Cheng Prusoff; for IC50: inhibition of cAMP response to 30 nM PGE2, read-out: Antagonist effect: IC50
Method: Determination of cAMP in CHO Cells Transfected with Human EP4 Receptor (Functional Test)
Method: Evaluation of the agonist and antagonist activity of Compound 1 in the human EP4 receptor expressed in CHO cells transfected with the human EP4 receptor, determined by measuring its effects on cAMP production in the absence and in the presence of the endogenous agonist PGE2.
The CHO cells were suspended in HBSS buffer (Invitrogen) with the addition of HEPES 20 mM (pH 7.4) and IBMX […], then distributed in microplates at a density of 20000 cells per well and incubated for 10 minutes at room temperature in the absence (control) or in presence of the compound under examination. As a reference control of the agonist activity, 1 μM of PGE2 was added to independent dosage wells. In the case of the evaluation of the antagonistic effect, the reference agonist PGE2 was instead added to a final concentration of 30 nM. After 10 minutes of incubation at room temperature, the cells were lysed and the fluorescence acceptor (cAMP labelled D2) and the fluorescence donor (anti-cAMP antibody labelled with europium cryptate) were added. After 60 minutes at room temperature, the fluorescence transfer was measured at a wavelength of 337 nm in excitation and at 620 and 665 nm in emission using a microplate reader (Envison, Perkin Elmer). The cAMP concentration was determined by dividing the measured signal at 665 nm by that measured at 620 nm (ratio). The results were expressed, in the case of the evaluation of the agonist effect, as a percentage of the control response at 1 μM of PGE2 while, in the case of the evaluation of the antagonist effect, as a percentage of inhibition of the response of the control agonist at 30 nM PGE2. For the determination of the antagonist activity, the apparent dissociation constant (Kb) was calculated by applying the modified Cheng Prusoff equation (Kb=IC50/(1+A/EC50A)); where A=concentration of the reference agonist PGE2, and EC50A=EC50 value of the reference agonist.

[4] = tested on: collagen-induced arthritis in mice; experiment: Collagen arthritis in the mouse (CIA); type: in vivo
[5] = Pharmacokinetics in Wistar rats; type: in vivo; conditions: for Cmax: rat, plasma, oral
[6] = read-out: Antagonist effect: Kb
[7] = read-out: Kb (apparent dissociation constant), antagonist

T2 sequence (P35408 whole entry): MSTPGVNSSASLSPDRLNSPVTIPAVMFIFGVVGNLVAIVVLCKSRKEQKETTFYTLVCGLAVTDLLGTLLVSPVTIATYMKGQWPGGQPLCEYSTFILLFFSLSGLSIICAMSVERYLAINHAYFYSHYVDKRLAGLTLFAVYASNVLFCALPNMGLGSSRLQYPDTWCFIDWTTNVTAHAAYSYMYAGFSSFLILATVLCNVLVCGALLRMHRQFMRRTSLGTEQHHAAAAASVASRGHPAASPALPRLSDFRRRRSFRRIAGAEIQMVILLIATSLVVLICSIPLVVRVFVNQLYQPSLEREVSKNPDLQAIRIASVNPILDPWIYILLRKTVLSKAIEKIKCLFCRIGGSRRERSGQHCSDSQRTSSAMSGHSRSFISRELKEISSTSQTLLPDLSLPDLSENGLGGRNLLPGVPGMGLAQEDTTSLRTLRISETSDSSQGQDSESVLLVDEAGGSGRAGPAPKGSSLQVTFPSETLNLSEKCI
T1 sequence (P43114 whole entry): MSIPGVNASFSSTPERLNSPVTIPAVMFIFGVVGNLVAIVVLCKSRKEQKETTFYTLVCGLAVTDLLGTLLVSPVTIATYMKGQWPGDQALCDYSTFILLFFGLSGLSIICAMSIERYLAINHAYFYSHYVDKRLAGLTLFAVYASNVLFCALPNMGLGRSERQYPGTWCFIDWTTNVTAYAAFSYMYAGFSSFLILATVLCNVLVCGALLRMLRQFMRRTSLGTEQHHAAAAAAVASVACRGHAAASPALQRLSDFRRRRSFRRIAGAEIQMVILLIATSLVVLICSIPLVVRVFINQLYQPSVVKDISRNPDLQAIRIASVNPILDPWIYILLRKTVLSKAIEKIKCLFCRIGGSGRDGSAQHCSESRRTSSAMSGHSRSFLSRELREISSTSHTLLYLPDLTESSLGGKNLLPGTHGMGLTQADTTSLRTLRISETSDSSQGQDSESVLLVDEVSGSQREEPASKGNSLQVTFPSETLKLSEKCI

| Effect per se on the release of TNF alpha (in absence of PGE2) [1] | IC50 [2] [nM] | Agonist effect (inactive up to) [3] | Kb [3, 6] [nM] | Kb [3, 7] [nM] | IC50 [3] [nM] | Oral bioavailability [5] | AUC (0-24 h) ([5]; 5 mg/kg) [ngxh/ml] | Cmax ([5]; 5 mg/kg, converted from 4270 ng/ml, read-out: CMAX as plasma concentration) [µM] | Cmax ([5]; 5 mg/kg, read-out: CMAX) [ng/mL] | times less active than Compound 1 in inhibiting the binding of the PGE2 ligand to the human EP4 receptor ([2]; relative to Compound 1) | Compound | Reversion of the effect of PGE2 on LPS-induced TNF alpha release [1] | Progression of collagen-induced arthritis (oedema, clinical and histopathological score) ([4]; 45 and 90 mg/kg oral, 16 days, DBA/1 mice) | Reversion of clinical symptoms (swelling of paws) compared with CR6086 30 mg/kg ([4]; compound 1 at 45 mg/kg vs CR6086 30 mg/kg in a similar study) |
| --- | --- | --- | --- | --- | --- | --- | --- | --- | --- | --- | --- | --- | --- | --- |
| no significant effects per se | 48 ± 3 | > 10^−6 M | 7.8 | 7.8 | 82 | – | – | – | – | – | O=C(O)c1ccc(C2(NC(=O)[C@H]3CC4(CCN3Cc3ccc(C(F)(F)F)cc3)CC4)CC2)cc1 [CR6086, 4-(1-(6-(4-(trifluoromethyl)benzyl)-6-azaspiro [2.5]octan-5-carboxamide)cyclopropyl) benzoic acid, reference compound] | statistically significant reversion of the effect of PGE2 | – | – |
| no significant effects per se | 45 ± 0.4 | > 10^−6 M | 15 | 15 | 160 | excellent oral bioavailability | 5460 | ~9 | 4270 | – | O=C(O)c1ccc(C2(NC(=O)[C@H]3CCCN3Cc3ccc(C(F)(F)F)cc3)CC2)cc1 [Compound 1] | statistically significant reversion of the effect of PGE2 | significantly and in a dose-dependent manner reduced the evolution of the pathology | greater effect on the reversion of clinical symptoms |
| – | 2210 ± 940 | – | – | – | – | – | – | – | – | about 50 times | O=C(O)c1ccc(C2(NC(=O)[C@@H]3CCCN3Cc3ccc(C(F)(F)F)cc3)CC2)cc1 [Compound 2, sodium salt of (S)-4-(1-(1-(4-(trifluoromethyl)benzyl)pyrrolidin-2-carboxamide)cyclopropyl) benzoic acid] | – | – | – |

Source: patent US11718582B2, “(R)-4-(1-(1-(4-(trifluoromethyl)benzyl)pyrrolidine-2-carboxamide)cyclopropyl)-benzoic acid as EP4 receptor antagonist” (ROTTAPHARM BIOTECH S.R.L., priority 2018, dated 2023)
